Legend:
[1] = test system: SD rats; assay: Comparison of MC6 (oral, i.v.) with i.v. r-insulin during glucose infusion in SD rats; format: in vivo, rat; conditions: 500 μg MC6 i.v. or 150 mU r-insulin i.v. at 60 minutes following glucose infusion, FIG. 5
Procedure: In the next experiment, orally administered purified fraction MC6 (500 μg) was compared with i.v. injection of insulin (150 mU) in SD rats. Animals were divided into four groups and starved for three hours. Group 1 received PBS only; group 2 was given MC6 orally 60 minutes before glucose infusion; group 3 received 150 mU r-insulin (Humalin-R® of Novo-Nordisk) i.v. at 60 minutes following glucose infusion through jugular vein and group 4 received 500 μg MC6 in 1 ml PBS (i.v.) at 60 minutes following glucose infusion through jugular vein. In all cases, glucose infusion was at 18 mg/min/kg. Blood samples were collected from the carotid artery at different time intervals and quantitative plasma glucose levels were measured […].

[2] = test system: normal rats; assay: Oral glucose tolerance test in normal rats; format: in vivo, rat; conditions: compared to vehicle treated animals, FIG. 11
Source text: FIG. 11 represents the hypoglycemic activity of MC6.1 and its derivators, MC6.2 and 6.3 analogs in oral glucose tolerance test in normal rats.

Substance | hypoglycemic profile, systemic (i.v.) injection [1] | lowering blood glucose in oral glucose tolerance test [2]
r-insulin: r-insulin (Humalin-R of Novo-Nordisk), 150 mU i.v., comparator | identical hypoglycemic profile | 
6.3: 7-a.a. derivative of MC6.1: K-T-N-M-K-H-M (SEQ ID NO:03) (KTNMKHM) |  | effective in lowering blood glucose

From patent US6852695B2, “Orally active fraction of momordica charantia, active peptides thereof, and their use in the treatment of diabetes” (Theracos, Inc., priority 1997, dated 2005)
